Results taken from patent US20230399360A1, “TERLIPRESSIN-OCTADECANEDIOIC ACID CONJUGATE FOR VASOCONSTRICTIVE THERAPY” (Northwestern University, priority 2019, published 2023).
One block for each molecule: values may come before it. Bridge positions count the residues as written; N and C are the ends. Peptide text beside a SMILES is read from it. * marks the point of attachment. C18 diacid = O=C(O)CCCCCCCCCCCCCCCCC(=O)*

Key:
[1] = mouse, in vivo
Procedure: (§1) Blood samples were drawn from the animals (approximately 100 μl) at different time points (1 hr, 3 hr, 6 hr, 24 hr) following the injection. The plasma was separated from the whole blood by centrifugation at 7,000 RPM for 10 minutes and the supernatant was transferred to a new tube. To separate the peptides or peptide conjugates from the plasma proteins, the proteins were denatured using a 7M guanidinium hydrochloride solution mixed 1:1 with the plasma and incubated at room temperature for 15 minutes. Subsequently, to the solution was diluted 10-fold with cold ethanol and the samples were incubated at −20° C. After 1 hour incubation the samples were centrifuged at 10,000 RPM for 10 minutes to precipitate the proteins, and the supernatant was transferred to a new tube. Samples were kept at −80° C. until analyzed.
(§2) 5-20 μl of the ethanol solution were injected to a QTRAP 6500+LC-MS/MS system (SCIEX) for detecting the drug concentration. Mass spectra were obtained and the areas under the curves were evaluated against a calibration curve made formerly.
(§3) Blood pressure measurements were taken for the first 20 minutes following drug injection, and subsequently blood samples were drawn at 1, 3, 6 and 24 hours.

[2] = molecular target: T1, V1 receptor (Homo sapiens, UniProt P37288); assay: Calcium influx assay (Fluo-4) in primary human aortic smooth muscle cells; format: cell-based; settings: 10^-8 to 10^-4 M, fluorescence over 5 min
T1 construct: Primary human aortic smooth muscle cells (ATCC, PCS-100-012 cell line) were cultured in vascular cell basal medium; host or cells: primary human aortic smooth muscle cells
T1 sequence (P37288 whole entry): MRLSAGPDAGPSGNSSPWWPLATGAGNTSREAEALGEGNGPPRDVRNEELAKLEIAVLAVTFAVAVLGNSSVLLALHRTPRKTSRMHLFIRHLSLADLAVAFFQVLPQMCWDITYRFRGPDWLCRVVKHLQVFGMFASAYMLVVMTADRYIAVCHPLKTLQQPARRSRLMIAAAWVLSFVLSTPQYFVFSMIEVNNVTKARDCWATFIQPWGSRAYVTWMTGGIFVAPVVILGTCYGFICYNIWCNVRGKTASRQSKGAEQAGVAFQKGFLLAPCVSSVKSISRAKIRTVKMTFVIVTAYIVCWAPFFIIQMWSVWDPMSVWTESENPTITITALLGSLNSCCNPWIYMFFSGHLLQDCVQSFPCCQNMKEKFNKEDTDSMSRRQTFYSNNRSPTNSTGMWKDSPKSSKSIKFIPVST
Procedure: Primary human aortic smooth muscle cells (ATCC, PCS-100-012 cell line) were cultured in vascular cell basal medium supplemented with rhFGF-basic 5 ng/mL, rh insulin 5 μg/mL, ascorbic acid 50 μg/mL, L-glutamine 10 mM, rh EGF 5 ng/mL, fetal bovine serum 5%.
Calcium influx assays were performed using Fluo-4 direct calcium assay kit (ThermoFisher) on cells between passage numbers 3 to 6. To this end, cells were passaged and plated in a 96-well black tissue culture plate in a concentration of 10,000 cells per well followed by incubation in 37° C. and 5% CO2 for 48 hours. Cells were loaded with the dye and incubated for 1 hr at 37° C. and 5% CO2. Then, terlipressin peptide or terlipressin-ODDA was added to the wells in concentrations ranging from 10^−8 to 10^−4 M, and fluorescence was measured immediately on a Perkin Elmer EnSpire 2300 plate reader. Signal was measured at 530 nm following excitation at 488 nm at 999 time points over a 5 min period.

[3] = Non-invasive tail-cuff systolic blood pressure measurement in mice; format: in vivo, C57BL/6 mice; settings: for increase in systolic blood pressure: C57BL mice, intraperitoneal injection, 0.1 to 10 μg/gr body weight, 20 minutes of measurement, compared with PBS vehicle
[4] = in vivo; settings: mouse
Procedure: as §1, §2, §3

[5] = human, in vivo; cited from earlier work
[6] = listed as terlipressin conjugate
[7] = mice, systolic blood pressure vs baseline (FIG. 8)

Structure (SMILES): NCCCCC(NC(=O)C1CCCN1C(=O)C1CSSCC(NC(=O)CNC(=O)CNC(=O)CNC(=O)CCCCCCCCCCCCCCCCC(=O)O)C(=O)NC(Cc2ccc(O)cc2)C(=O)NC(Cc2ccccc2)C(=O)NC(CCC(N)=O)C(=O)NC(CC(N)=O)C(=O)N1)C(=O)NCC(N)=O (stereo not shown) [C18-terlipressin, octadecanedioic acid-terlipressin] ({C18 diacid}-GGGCYFQNCPKG-NH2; disulfide 4-9; configuration not given here)
- detection in plasma by LC-MS-MS [1]: very sharp and clear peaks
- half-lifetime in plasma [1]: about 1 hour
- activation of smooth muscle cells indicated by influx of intracellular calcium ([2]; listed as conjugate): can stimulate vasocontraction in cultured smooth muscle cells
- activation of smooth muscle cells indicated by influx of intracellular calcium [2, 6]: can stimulate response in cultured smooth muscle cells
- activation of smooth muscle cells indicated by influx of intracellular calcium ([2]; listed as terlipressin conjugates): can bind to and activate smooth muscle cells
- increase in systolic blood pressure [3]: clear increase in pressure
- increase in systolic blood pressure ([3]; listed as C18 ODDA-terlipressin conjugates): increase the systolic blood pressure
- increase in systolic blood pressure ([3]; listed as ODDA-terlipressin conjugates): increase the systolic blood pressure
- increase in systolic blood pressure [3, 6]: Rise in blood pressure was observed
- course of systolic blood pressure over time after injection [3, 7]: more stable pressure over time
- half-life [4]: ~1 h

- detection in plasma by LC-MS-MS [1]: no terlipressin was detected at all
Structure (SMILES): NCCCC[C@H](NC(=O)[C@@H]1CCCN1C(=O)[C@@H]1CSSC[C@H](NC(=O)CNC(=O)CNC(=O)CN)C(=O)N[C@@H](Cc2ccc(O)cc2)C(=O)N[C@@H](Cc2ccccc2)C(=O)N[C@@H](CCC(N)=O)C(=O)N[C@@H](CC(N)=O)C(=O)N1)C(=O)NCC(N)=O [terlipressin, Terlipressin] (H-GGGCYFQNCPKG-NH2; disulfide 4-9)
- increase in systolic blood pressure [3]: clear increase in pressure
- course of systolic blood pressure over time after injection [3, 7]: continuous drop in pressure
- time of peak in measured blood pressure following the injection [3, 7]: 5 min
- half life following IV administration [5]: less than 6 minutes
